Data as given in PubChem BioAssay (NCI).
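Cultured in 96-well plates, cells were exposed to test compound for 48 hours across five concentrations. GI50 = concentration required for 50% inhibition of growth. TGI: concentration producing complete growth inhibition.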

Key:
Assay in all cases: NCI tumour cell line growth inhibition, 48 h
OVCAR-8 ovarian = test system: OVCAR-8 ovarian
HOP-92 NSCLC = test system: HOP-92 NSCLC
LOX IMVI melanoma = test system: LOX IMVI melanoma
CAKI-1 renal = test system: CAKI-1 renal
BT-549 breast = test system: BT-549 breast
HCC-2998 colon = test system: HCC-2998 colon
UACC-62 melanoma = test system: UACC-62 melanoma
SNB-19 CNS = test system: SNB-19 CNS
OVCAR-4 ovarian = test system: OVCAR-4 ovarian
HT29 colon = test system: HT29 colon
U251 CNS = test system: U251 CNS
RPMI-8226 leukemia = test system: RPMI-8226 leukemia
MCF7 breast = test system: MCF7 breast
SK-MEL-5 melanoma = test system: SK-MEL-5 melanoma
NCI-H23 lung = test system: NCI-H23 lung
NCI-H226 lung = test system: NCI-H226 lung
786-0 renal = test system: 786-0 renal
HL-60(TB) leukemia = test system: HL-60(TB) leukemia
MOLT-4 leukemia = test system: MOLT-4 leukemia
M14 melanoma = test system: M14 melanoma
SF-268 CNS = test system: SF-268 CNS
OVCAR-3 ovarian = test system: OVCAR-3 ovarian
PC-3 prostate = test system: PC-3 prostate
A498 renal = test system: A498 renal
MALME-3M melanoma = test system: MALME-3M melanoma
HS 578T breast = test system: HS 578T breast
NCI-H522 lung = test system: NCI-H522 lung
OVCAR-5 ovarian = test system: OVCAR-5 ovarian
DU-145 prostate = test system: DU-145 prostate
UACC-257 melanoma = test system: UACC-257 melanoma
SNB-75 CNS = test system: SNB-75 CNS
SK-OV-3 ovarian = test system: SK-OV-3 ovarian
SW-620 colon = test system: SW-620 colon
MDA-MB-231 breast = test system: MDA-MB-231 breast
SK-MEL-2 melanoma = test system: SK-MEL-2 melanoma
EKVX NSCLC = test system: EKVX NSCLC
UO-31 renal = test system: UO-31 renal
SF-295 CNS = test system: SF-295 CNS
KM12 colon = test system: KM12 colon
A549 NSCLC = test system: A549 NSCLC
SF-539 CNS = test system: SF-539 CNS
IGROV1 ovarian = test system: IGROV1 ovarian
TK-10 renal = test system: TK-10 renal
SN12C renal = test system: SN12C renal
HCT-116 colon = test system: HCT-116 colon
SR leukemia = test system: SR leukemia
MDA-MB-435 = test system: MDA-MB-435
RXF 393 renal = test system: RXF 393 renal
HOP-62 NSCLC = test system: HOP-62 NSCLC
HCT-15 colon = test system: HCT-15 colon
SK-MEL-28 melanoma = test system: SK-MEL-28 melanoma
CCRF-CEM leukemia = test system: CCRF-CEM leukemia
K-562 leukemia = test system: K-562 leukemia
NCI-H460 lung = test system: NCI-H460 lung
COLO 205 colon = test system: COLO 205 colon
T-47D breast = test system: T-47D breast
NCI/ADR-RES ovarian = test system: NCI/ADR-RES ovarian
ACHN renal = test system: ACHN renal

## O=C1NN(C(=O)c2ccccc2)C(c2ccc(Cl)c(Cl)c2)=C/C1=C\c1ccccc1[N+](=O)[O-]
OVCAR-8 ovarian
  GI50: 2630 nM
  TGI: > 6750 nM
HOP-92 NSCLC
  GI50: 1430 nM
  TGI: > 6750 nM
LOX IMVI melanoma
  GI50: 1140 nM
  TGI: 3490 nM
CAKI-1 renal
  GI50: 2270 nM
  TGI: > 6750 nM
BT-549 breast
  GI50: 1180 nM
  TGI: 5400 nM
HCC-2998 colon
  GI50: 1810 nM
  TGI: 5480 nM
UACC-62 melanoma
  GI50: 1440 nM
  TGI: > 6750 nM
SNB-19 CNS
  GI50: 339 nM
  TGI: > 6750 nM
OVCAR-4 ovarian
  GI50: 2260 nM
  TGI: > 6750 nM
HT29 colon
  GI50: 2300 nM
  TGI: > 6750 nM
U251 CNS
  GI50: 897 nM
  TGI: > 6750 nM
RPMI-8226 leukemia
  GI50: 1770 nM
  TGI: > 6750 nM
MCF7 breast
  GI50: 1820 nM
  TGI: > 6750 nM
SK-MEL-5 melanoma
  GI50: 1170 nM
  TGI: 2190 nM
NCI-H23 lung
  GI50: 1040 nM
  TGI: 6500 nM
NCI-H226 lung
  GI50: 1440 nM
  TGI: > 6750 nM
786-0 renal
  GI50: 2200 nM
  TGI: > 6750 nM
HL-60(TB) leukemia
  GI50: 2010 nM
  TGI: > 6750 nM
MOLT-4 leukemia
  GI50: 2040 nM
  TGI: > 6750 nM
M14 melanoma
  GI50: 1900 nM
  TGI: > 6750 nM
SF-268 CNS
  GI50: 3970 nM
  TGI: > 6750 nM
OVCAR-3 ovarian
  GI50: 2400 nM
  TGI: > 6750 nM
PC-3 prostate
  GI50: 1520 nM
  TGI: > 6750 nM
A498 renal
  GI50: 2210 nM
  TGI: 6210 nM
MALME-3M melanoma
  GI50: 4530 nM
  TGI: > 6750 nM
HS 578T breast
  GI50: 2460 nM
  TGI: > 6750 nM
NCI-H522 lung
  GI50: 1240 nM
  TGI: 3770 nM
OVCAR-5 ovarian
  GI50: 1960 nM
  TGI: > 6750 nM
DU-145 prostate
  GI50: 2780 nM
  TGI: > 6750 nM
UACC-257 melanoma
  GI50: 5230 nM
  TGI: > 6750 nM
SNB-75 CNS
  GI50: 1270 nM
  TGI: > 6750 nM
SK-OV-3 ovarian
  GI50: 4000 nM
  TGI: > 6750 nM
SW-620 colon
  GI50: 2270 nM
  TGI: > 6750 nM
MDA-MB-231 breast
  GI50: > 6750 nM
  TGI: > 6750 nM
SK-MEL-2 melanoma
  GI50: 3110 nM
  TGI: > 6750 nM
EKVX NSCLC
  GI50: 2810 nM
  TGI: > 6750 nM
UO-31 renal
  GI50: 735 nM
  TGI: 6700 nM
SF-295 CNS
  GI50: 1440 nM
  TGI: 4160 nM
KM12 colon
  GI50: 2340 nM
  TGI: > 6750 nM
A549 NSCLC
  GI50: 2110 nM
  TGI: > 6750 nM
SF-539 CNS
  GI50: 2470 nM
  TGI: > 6750 nM
IGROV1 ovarian
  GI50: 1590 nM
  TGI: > 6750 nM
TK-10 renal
  GI50: 4260 nM
  TGI: > 6750 nM
SN12C renal
  GI50: 2400 nM
  TGI: > 6750 nM
HCT-116 colon
  GI50: 2030 nM
  TGI: > 6750 nM
SR leukemia
  GI50: 2070 nM
  TGI: > 6750 nM
MDA-MB-435
  GI50: > 6750 nM
  TGI: > 6750 nM
RXF 393 renal
  GI50: 1670 nM
  TGI: 5350 nM
HOP-62 NSCLC
  GI50: 3440 nM
  TGI: > 6750 nM
HCT-15 colon
  GI50: 923 nM
  TGI: 2990 nM
SK-MEL-28 melanoma
  GI50: 2720 nM
  TGI: > 6750 nM
CCRF-CEM leukemia
  GI50: 1910 nM
  TGI: > 6750 nM
K-562 leukemia
  GI50: 1900 nM
  TGI: > 6750 nM
NCI-H460 lung
  GI50: 1780 nM
  TGI: 5200 nM
COLO 205 colon
  GI50: 1520 nM
  TGI: 3490 nM
T-47D breast
  GI50: 2250 nM
  TGI: > 6750 nM
NCI/ADR-RES ovarian
  GI50: 2290 nM
  TGI: > 6750 nM
ACHN renal
  GI50: 3090 nM
  TGI: > 6750 nM
